Usually IC50 stands for the concentration at which inhibition is half-maximal.

The values that follow come from patent publication US20240409609A1, “REVERSIBLE LYSINE COVALENT MODIFIERS OF EGFR AND USES THEREOF” (Terremoto Biosciences, Inc., priority 2021, published 2024).

SMILES strings stand for the structures.

One experiment has as its target WT-EGFR (Homo sapiens (Human), UniProt P00533). Put plainly: EGFR jump dilution study. It counts as biochemical. The conditions noted are these: 100-fold dilution, 1 mM ATP, up to 10 hrs. On the procedure: Enzyme:inhibitor complexes were pre-formed at EGFR 100Y^1 final reaction concentration by incubating enzyme with an inhibitor at the greater concentration of either 10Y^1 inhibitor IC50, or 1:1.2 stoichiometry with enzyme.
After incubating enzyme:inhibitor complexes on ice for 30 min, reactions were diluted in two steps 100-fold into reaction buffer supplemented with 1 mM ATP, and 20 uM AssayQuant substrate (AQT0734), with final reaction volumes of 20 μL in a 384 well reaction plate. Wells were read immediately and at timepoints post-dilution for up to 10 hrs in a PerkinElmer Ensight plate reader, according to the AssayQuant manufacturer's instructions.
Data processing: Raw fluorescence signal was first background corrected by subtracting the fluorescence intensity of wells containing only the AssayQuant substrate, and no enzyme. Enzyme activity was normalized relative DMSO controls for each enzyme at each timepoint. In this way, DMSO-treated wells appear as a constant normalized activity=1 throughout the assay.
The X-axis of each of the three graphs represents the time after dilution that the enzyme activity was measured, with t=0 representing the time of jump dilution. The Y-axis of each graph provides the enzymatic activity at each time point. Enzymatic activity is normalized to the DMSO-treated control samples (i.e., the same enzyme variant treated with DMSO instead of compound). As such, a DMSO-normalized value of 1.0 represents full enzymatic activity (i.e., equivalent to the DMSO-treated control), while a value below 1.0 represents reduced activity relative to control (i.e., some degree of enzyme inhibition at the time measured). The data points over time (e.g., from 0 to 600 minutes post-dilution) are therefore indicative of the off-rate for the compound. […] Thus, the jump-dilution data provided a qualitative estimate of the off-rate kinetics for each compound against the panel of EGFR variants. Experiments were run in duplicate, resulting in two different data sets for each graph.

In another experiment the target is EGFR WT (Homo sapiens (Human), UniProt P00533). Put plainly: EGFR biochemical assay (AssayQuant chelation-enhanced fluorescence). The conditions noted are these: 30 min preincubation, reaction time 360 min.
A further experiment has as its target EGFR WT in Ba/F3 cells (Homo sapiens (Human), UniProt P00533). Put plainly: Ba/F3 pEGFR assay (AlphaLISA p-EGFR Tyr1068). The conditions noted are these: 2 hrs treatment, media supplemented with EGF. It counts as cell-based. On the procedure: Cellular activity was determined using the Ba/F3 system for studying oncogenic mutant kinases (Warmuth 2007). […] Transduced cells were maintained in RPMI 1640 with 10% FBS. EGFR WT transduced cells were grown in media supplemented with EGF. To assay cellular activity of inhibitors, cells were treated with inhibitor from 1000X DMSO stock dilutions and incubated for 2 hrs at 37° C. 5% CO2. Subsequently, p-EGFR (Tyr1068) was quantified using a commercial sandwich immunoassay (PerkinElmer AlphaLISA SureFire assay; ALSU-PEGFR) according to the manufacturer's instructions. […] Curr Opin Oncol 19, 55-60 (2007), which is incorporated herein in its entirety.
In general terms: Alpha assays give light when donor and acceptor beads are brought close together.

EGFR WT, sequence (P00533 668-1210): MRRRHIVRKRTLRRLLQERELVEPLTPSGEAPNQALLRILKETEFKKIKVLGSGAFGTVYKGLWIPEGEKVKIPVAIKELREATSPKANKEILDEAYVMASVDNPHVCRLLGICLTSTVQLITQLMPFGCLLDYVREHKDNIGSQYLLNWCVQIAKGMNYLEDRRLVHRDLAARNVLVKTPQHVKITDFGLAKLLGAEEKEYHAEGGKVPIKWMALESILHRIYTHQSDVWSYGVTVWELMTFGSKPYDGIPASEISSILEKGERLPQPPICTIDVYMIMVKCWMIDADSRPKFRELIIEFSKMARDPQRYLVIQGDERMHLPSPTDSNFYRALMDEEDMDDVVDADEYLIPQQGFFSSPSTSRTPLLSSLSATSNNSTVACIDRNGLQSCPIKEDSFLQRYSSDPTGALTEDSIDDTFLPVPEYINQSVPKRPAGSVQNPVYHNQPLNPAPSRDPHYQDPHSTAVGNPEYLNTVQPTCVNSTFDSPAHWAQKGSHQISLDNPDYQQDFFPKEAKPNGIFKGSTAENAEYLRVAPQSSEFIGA
WT-EGFR, sequence (P00533 668-1210): as above
EGFR WT in Ba/F3 cells, sequence (P00533 25-1210): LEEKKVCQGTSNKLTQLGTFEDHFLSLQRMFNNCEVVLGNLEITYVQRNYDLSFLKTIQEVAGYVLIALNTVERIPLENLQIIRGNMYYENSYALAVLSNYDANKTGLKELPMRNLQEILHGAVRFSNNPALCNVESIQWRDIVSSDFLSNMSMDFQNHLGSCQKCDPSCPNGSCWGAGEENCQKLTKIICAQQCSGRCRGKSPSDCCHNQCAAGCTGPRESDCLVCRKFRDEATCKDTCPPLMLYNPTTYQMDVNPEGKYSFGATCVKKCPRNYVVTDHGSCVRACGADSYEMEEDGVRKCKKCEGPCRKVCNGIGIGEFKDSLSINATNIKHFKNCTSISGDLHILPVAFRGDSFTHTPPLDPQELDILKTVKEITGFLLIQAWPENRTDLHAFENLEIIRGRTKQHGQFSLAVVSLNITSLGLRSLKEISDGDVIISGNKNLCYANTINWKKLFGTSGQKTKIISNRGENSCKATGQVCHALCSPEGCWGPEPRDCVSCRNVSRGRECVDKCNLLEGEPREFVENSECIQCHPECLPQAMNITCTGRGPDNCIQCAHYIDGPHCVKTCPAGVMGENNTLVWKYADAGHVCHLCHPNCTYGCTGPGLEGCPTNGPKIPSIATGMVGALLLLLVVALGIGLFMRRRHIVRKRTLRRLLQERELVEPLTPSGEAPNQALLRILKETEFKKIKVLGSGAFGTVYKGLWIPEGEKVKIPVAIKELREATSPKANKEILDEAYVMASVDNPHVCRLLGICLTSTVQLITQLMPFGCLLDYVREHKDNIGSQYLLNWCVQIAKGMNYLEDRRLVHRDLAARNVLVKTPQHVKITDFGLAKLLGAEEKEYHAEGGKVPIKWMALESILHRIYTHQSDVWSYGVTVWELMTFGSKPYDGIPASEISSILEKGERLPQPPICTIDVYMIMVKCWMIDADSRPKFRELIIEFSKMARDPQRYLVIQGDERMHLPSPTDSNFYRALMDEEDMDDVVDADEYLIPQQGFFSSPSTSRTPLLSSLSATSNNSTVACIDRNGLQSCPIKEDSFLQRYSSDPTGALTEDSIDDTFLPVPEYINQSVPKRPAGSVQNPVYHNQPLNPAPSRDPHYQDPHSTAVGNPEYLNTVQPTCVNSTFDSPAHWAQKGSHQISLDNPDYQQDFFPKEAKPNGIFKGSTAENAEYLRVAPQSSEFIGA

Regarding `C#CCNC(=O)c1cc(Nc2cc(C3CC3)[nH]n2)nc(N2CCN(Cc3ccc(C=O)c(O)c3)CC2)n1` [Compound 1], the “off-rate kinetics after jump dilution” value at WT-EGFR was “enzymatic activity quickly returned following dilution”.
Still for that read-out and setting: in the case of `COc1cc(N2CCC(N3CCN(C)CC3)CC2)ccc1Nc1ncc(-c2ccc(O)c(C=O)c2)c(Nc2ccccc2)n1` [Compound 3] it was “slow-off kinetics”.
Consider `COc1cc(N2CCC(N3CCN(C)CC3)CC2)ccc1Nc1ncc(Cl)c(Nc2ccccc2-c2cccc(C=O)c2O)n1` [Compound 6], for which, at EGFR WT, the IC50 is more than 1 µM. On WT-EGFR, the “off-rate kinetics after jump dilution” value is “slow-off kinetics”.
`COc1cc(N(C)CCN(C)C)c(NC(C)=O)cc1Nc1nccc(-c2cn(Cc3cccc(C=O)c3O)c3ccccc23)n1` [Compound 7]: the “off-rate kinetics after jump dilution” value at WT-EGFR is “slow-off kinetics”.
Consider `CN1CCN(Cc2ccc3[nH]/c(=N\C(=O)c4ccnc(C#Cc5cccc(N)c5C=O)c4)n(CC(C)(C)O)c3c2)CC1` [Compound 99], for which the IC50 was 0.129 µM on EGFR WT and 1.29 µM at EGFR WT in Ba/F3 cells.
For `CN1CCN(Cc2ccc3[nH]/c(=N\C(=O)c4ccnc(C#Cc5cncc(O)c5C=O)c4)n(CC(C)(C)O)c3c2)CC1` [Compound 100] the same measures were 0.0743 µM and more than 10 µM.
The corresponding values for `CN1CCN(Cc2ccc3[nH]/c(=N\C(=O)c4ccnc(C#Cc5cccc(NC(=O)C(F)(F)F)c5C=O)c4)n(CC(C)(C)O)c3c2)CC1` [Compound 101] are 0.2 µM and 2.57 µM.
The corresponding values for `Cc1cc(C(=O)/N=c2\[nH]c3ccc(CN4CCN(C)CC4)cc3n2CC(C)(C)O)cc(-n2cc(-c3cccc(O)c3C=O)cn2)n1` [Compound 102] are 0.348 µM and more than 10 µM.
Regarding `CN1CCN(Cc2ccc3[nH]/c(=N\C(=O)c4ccnc(N5CC(Oc6cccc(O)c6C=O)C5)c4)n(CC(C)(C)O)c3c2)CC1` [Compound 104], the figures for the IC50 on EGFR WT and against EGFR WT in Ba/F3 cells were 0.344 µM and more than 10 µM, respectively.
For `CN1CCN(Cc2ccc3[nH]/c(=N\C(=O)c4ccc(Oc5cccc(O)c5C=O)cc4)n(CC(C)(C)O)c3c2)CC1` [Compound 105] the same measures were 0.28 µM and more than 10 µM.
Take `CN1CCN(Cc2ccc3[nH]/c(=N\C(=O)c4cc(Oc5cccc(O)c5C=O)c5sccc5c4)n(CC(C)(C)O)c3c2)CC1` [Compound 107]: the IC50 at EGFR WT worked out at 0.00871 µM; on EGFR WT in Ba/F3 cells, 2.98 µM.
For the molecule `CN1CCN(Cc2ccc3[nH]/c(=N\C(=O)c4cncc(Oc5cccc(O)c5C=O)n4)n(CC(C)(C)O)c3c2)CC1` [Compound 108], the results for the IC50 at EGFR WT and against EGFR WT in Ba/F3 cells were 0.081 µM and more than 10 µM, respectively.
Take `CN1CCN(Cc2ccc3[nH]/c(=N\C(=O)c4ccc(F)c(Oc5cccc(O)c5C=O)c4)n(CC(C)(C)O)c3c2)CC1` [Compound 110]: the IC50 was determined as 0.00501 µM on EGFR WT and 1.49 µM against EGFR WT in Ba/F3 cells.
For `CN1CCN(Cc2ccc3[nH]/c(=N\C(=O)c4ccnc(OCc5cccc(O)c5C=O)c4)n(CC(C)(C)O)c3c2)CC1` [Compound 112] the same measures were more than 1 µM and 9.87 µM.
For `CC(C)(O)Cn1/c(=N/C(=O)c2ccnc(Oc3cccc(O)c3C=O)c2)[nH]c2ccccc21` [Compound 121] the same measures were 0.0105 µM and more than 10 µM.
For `O=Cc1c(O)cccc1Oc1cc(C(=O)/N=c2\[nH]c3ccccc3n2[C@H]2CC[C@@H](O)CC2)ccn1` [Compound 122] the same measures were 0.00824 µM and 5.26 µM.
Consider `O=Cc1c(O)cccc1Oc1cc(C(=O)/N=c2\[nH]c3ccccc3n2CCN2CCOCC2)ccn1` [Compound 123], for which the IC50 at EGFR WT was 0.221 µM; against EGFR WT in Ba/F3 cells, more than 10 µM.
`CN(C)C/C=C/C(=O)N1CCCC[C@@H](n2c(NC(=O)c3ccnc(-n4cc(-c5cccc(O)c5C=O)cn4)c3)nc3cccc(Cl)c32)C1` [Compound 125]: the IC50 at EGFR WT worked out at 0.0294 µM; on EGFR WT in Ba/F3 cells, 4.9 µM.
For `CN(C)C/C=C/C(=O)N1CCCC[C@@H](n2c(NC(=O)c3ccnc(Oc4cccc(O)c4C=O)c3)nc3cccc(Cl)c32)C1` [Compound 126] the same measures were 0.013 µM and 2.03 µM.
For `CC(C)(O)Cn1/c(=N/C(=O)c2ccnc(C#Cc3cccc(O)c3C=O)c2)[nH]c2ccccc21` [Compound 127] the same measures were 0.0382 µM and more than 10 µM.
The corresponding values for `CC(C)(O)Cn1/c(=N/C(=O)c2ccnc(-c3cccc(-c4cccc(O)c4C=O)c3)c2)[nH]c2ccccc21` [Compound 130] are 0.529 µM and 6.43 µM.
Consider `CC(C)(O)Cn1/c(=N/C(=O)c2ccnc(N3CCN(c4cccc(O)c4C=O)CC3)c2)[nH]c2ccccc21` [Compound 131], for which the half-maximal inhibitory concentration (IC50) at EGFR WT was more than 1 µM; on EGFR WT in Ba/F3 cells it was more than 10 µM.
The corresponding values for `CC(C)(O)Cn1/c(=N/C(=O)c2ccnc(-c3ccc(-c4cccc(O)c4C=O)cc3)c2)[nH]c2ccccc21` [Compound 132] are more than 1 µM and more than 10 µM.
Regarding `CC(C)(O)Cn1/c(=N/C(=O)c2ccnc(COc3cccc(O)c3C=O)c2)[nH]c2ccccc21` [Compound 133], the IC50 on EGFR WT is 0.316 µM; at EGFR WT in Ba/F3 cells, more than 10 µM.
The corresponding values for `CC(C)(O)Cn1/c(=N/C(=O)c2ccnc(Nc3cccc(C=O)c3O)c2)[nH]c2ccccc21` [Compound 134] are more than 1 µM and more than 10 µM.
For `CC(C)(O)Cn1/c(=N/C(=O)c2ccnc(CCc3cccc(O)c3C=O)c2)[nH]c2ccccc21` [Compound 135] the same measures were 0.0801 µM and 5.2 µM.
